{"source": "patent US20120010262A1", "about": "“CRYSTALLINE POLYMORPHIC FORMS OF AN ANTIDIABETIC COMPOUND” (priority 2009, published 2012)", "experiment": "Solid-form stability of crystalline anhydrate Form II (conversion to Anhydrate III)", "assay_type": "physicochemical", "conditions": "converts to crystalline Anhydrate III when heated to 160° C. for 1 hour or in solutions of ethanol, isoamyl alcohol and isopropyl acetate", "procedure": "Anhydrate Form II is prepared from a solution of the crystalline hydrate form at a concentration of >100 mg/mL in acetonitrile. The solution is sonicated for approximately 5 minutes to induce crystallization. Anhydrate H is metastable. It converts to crystalline Anhydrate III when heated to 160° C. for 1 hour or in solutions of ethanol, isoamyl alcohol and isopropyl acetate. The X Ray Powder Diffraction peaks are shown below in Table 4.", "data": [{"smiles": "CCC[C@H](c1ccc(C(=O)NCCC(=O)O)cc1)[C@H](c1ccc(Cl)cc1)c1c[nH]c2c(F)cc(C)cc12", "note": "[Anhydrate H, N-(4-{(1S)-1-[(R)-(4-chlorophenyl)(7-fluoro-5-methyl-1H-indol-3-yl)methyl]butyl}benzoyl)-β-alanine]", "values": [{"measurement": "physical stability of the crystalline form", "value": "metastable"}]}]}
